The test system of one series is gram negative organisms. The conditions noted are these: Dunn and Barradell, Drugs 1996; cited from earlier work.
A short description of series [1]: Moisture uptake of crystals on exposure to ambient atmosphere (hygroscopicity). The series is classed as physicochemical. The procedure: 9-Deoxo-9a-aza-9a-homoerythromycin A (73.5 g-0.1 mole) was dissolved in 250 ml acetone. To this solution, formic acid (19 ml) followed by formaldehyde (37%, 20 ml) were added and refluxed for 24 hrs. The pH of the reaction mixture was adjusted with alkali to 10.5 and filtered to remove particles. To the filtered acetone solution equal volume of water was added to precipitate azithromycin hygroscopic monohydrate as cube shaped crystals. The crystals were filtered and dried under vacuum at 50° C. to give 65 g of azithromycin monohydrate melting at 130-131° C. having a water content of 3.42% (by Karl Fischer titration method). This sample of hygroscopic monohydrate has a characteristic solid state (KBr pellet) IR spectrum (FIG. 1) and a characteristic x-ray diffraction pattern (FIG. 4).
10 gms of hygroscopic azithromycin-monohydrate was suspended in a mixture of iso-propanol (10 ml) and water (10 ml) and stirred at ambient temperature. The transformation of cubical crystals of monohydrate form to the rhomboid form crystals of dihydrate was followed by checking the crystal habit under a microscope at every two hour interval. At 16 hours the rhomboid dihydrate crystals only were seen. The slurry was filtered and dried under vacuum at 50° C. to give 9.8 g of azithromycin dihydrate. […] It has a characteristic solid state IR spectrum (KBr pellet) (FIG. 2) and x-ray diffraction pattern (FIG. 3).

Each structure is given as a SMILES string.

As for `CC[C@H]1OC(=O)[C@H](C)[C@@H](O[C@H]2C[C@@](C)(OC)[C@@H](O)[C@H](C)O2)[C@H](C)[C@@H](O[C@@H]2O[C@H](C)C[C@H](N(C)C)[C@H]2O)[C@@](C)(O)C[C@@H](C)CN(C)[C@H](C)[C@@H](O)[C@]1(C)O` [Azithromycin, 9-Deoxo-9a-aza-9a-methyl-9a-homo-Eryhromycin A], in the series on gram negative organisms, the “activity against gram negative organisms compared to Erythromycin A” value is “significant improvement in its activity”.

`CC[C@H]1OC(=O)[C@H](C)[C@@H](O[C@H]2C[C@@](C)(OC)[C@@H](O)[C@H](C)O2)[C@H](C)[C@@H](O[C@@H]2O[C@H](C)C[C@H](N(C)C)[C@H]2O)[C@](C)(O)C[C@@H](C)CN(C)[C@H](C)[C@@H](O)[C@]1(C)O` [azithromycin dihydrate, Azithromycin dihydrate]: the “change in moisture content on exposure to ambient atmosphere” value in series [1] (dihydrate crystals dried under vacuum at 50° C., then exposed to ambient atmosphere) is “no change in the moisture content”.

`CC[C@H]1OC(=O)[C@H](C)[C@@H](O[C@H]2C[C@@](C)(OC)[C@@H](O)[C@H](C)O2)[C@H](C)[C@@H](O[C@@H]2O[C@H](C)C[C@H](N(C)C)[C@H]2O)[C@](C)(O)C[C@@H](C)CN(C)[C@H](C)[C@@H](O)[C@]1(C)O` [azithromycin monohydrate, Azithromycin monohydrate]: the “moisture content reached on exposure to ambient atmosphere” value in series [1] (exposure to ambient atmosphere, 48 hrs, water content after drying 3.42% (Karl Fischer)) worked out at 5.4%.

The values are drawn from patent US20020111318A1, “Process for the preparation of non-hygroscopic azithromycin dihydrate” (priority 2001, published 2002).
